Literature values as cited in US20050014837A1, “Method for treating ocular hypertension and glaucoma” (priority 2001, published 2005).

Settings: 0.01% solution; 5, 10 and 20 μL

initial concentration in meniscus relative to the concentration of the administered fluorescein: 36-45%
Compound: O=C1OC2(c3ccc(O)cc3Oc3cc(O)ccc32)c2ccccc21 [fluorescein]
